Measurements from patent US12329799B2, “Peptidyl inhibitors of calcineurin-NFAT interaction” (Ohio State Innovation Foundation, priority 2018, dated 2025).
Positions of bridges follow the written chain, without caps; N, C: chain ends. Non-standard residues stand in square brackets, D forms with d. Residues, ends and D or L forms follow the SMILES beside them. Chains are numbered I, II in the order given. *: point of attachment. Benzoyl(2,3-Cl2) = O=C(c1cccc(Cl)c1Cl)*; 2Nal = N[C@@H](Cc1ccc2ccccc2c1)C(=O)O; Tle = CC(C)(C)[C@H](N)C(=O)O; βAla = NCCC(=O)O

Experiments:
[1] = tested on: LPS-induced acute lung injury (ALI) in mice; test: LPS sepsis-induced acute lung injury, intranasal CNI93; format: in vivo, mouse; details: i.n. 10 mg/kg
Method: As expected, LPS challenge of CPP9-VAVAA (SEQ ID NO: 224) treated mice increased the total protein in BALF by ˜2-fold and TNFα and IL-6 levels in BALF (FIGS. 11A, 11B, and 11D, respectively).
Mouse models of LPS sepsis. Mouse LPS sepsis-induced acute lung injury models were established by intraperitoneal injection of LPS at 10 mg/kg body weight. Acute lung injury was assessed by measuring secretion of TNFα, IL6 in to broncho alveolar lavage fluid (BALF), plasma levels of IL6 and TNFα, and neutrophilic infiltration. Pulmonary edema was measured by increased protein levels in BALF. Neutrophilic infiltration in to bronchoalveolar lavage fluid is determined by Hema 3.0 staining and number of neutrophils in BALF is quantitated.
Neutrophilic inflammation. BALF fluid from different treatment groups of mice was used to prepare Cytospin slides, stained using Hema 3 and number of neutrophils and macrophages per field view of microscopic view were counted and differences among groups calculated.

[2] = tested on: NFAT-mediated luciferase expression in Jurkat cells; test: NFAT luciferase assay in Jurkat cells; format: cell-based; details: 10 μM, Jurkat cells
Method: In a separate experiment, CNI93 was also tested against Jurkat cells expressing a luciferase gene under the transcriptional control of NFAT.
NFAT Luciferase Assay. Jurkat-Lucia cells maintained in RPMI-1640 supplemented with 10% FBS, 1% penicillin/streptomycin (v/v/v) and 100 μg/mL normocin were harvested after a passage with 50 μg/mL selective antibiotic Zeocin at 300×RCF for 5 min. Cells were resuspended in warm RPMI-1640 with antibiotics but without FBS to a final density of 2×10^6 cells/mL and seeded into white-on-white cell-culture treated 96-well plates. To each well was added 10 μL of DPBS containing compounds which dilute to the desired concentrations followed by 170 μL of cell suspension […] and incubated at 37° C. for 2 h. The cells were induced by treatment with 50 ng/mL PMA and 3 μg/mL ionomycin, Ca^2+ salt in FBS to achieve a final FBS concentration of 10% in each well (with FBS only as control). The plate was incubated for an additional 4 h at 37° C., when 20 μL of each sample was withdrawn and mixed with 50 μL of Quanti-Luc assay solution. The luminescence of the mixture was immediately measured on a Tecan Infinite M1000 plate reader.

CC[C@H](C)[C@H](NC(=O)[C@@H](NC(=O)c1cccc(Cl)c1Cl)C(C)(C)C)C(=O)N[C@H](C(=O)N[C@H](C(=O)N[C@H](C(=O)N[C@@H](CCC(N)=O)C(=O)N[C@@H](Cc1c[nH]cn1)C(=O)N[C@H](CC(C)C)C(=O)N[C@@H](CO)C(=O)NCCC(=O)N[C@@H](CCCCNC(=O)CC[C@@H]1NC(=O)[C@@H](CCCNC(=N)N)NC(=O)[C@H](CCCNC(=N)N)NC(=O)[C@@H](CCCNC(=N)N)NC(=O)[C@H](CCCNC(=N)N)NC(=O)[C@H](Cc2ccc3ccccc3c2)NC(=O)[C@@H](Cc2ccccc2)NC1=O)C(N)=O)[C@@H](C)O)[C@@H](C)CC)C(C)(C)C [CNI93] (I: {Benzoyl(2,3-Cl2)}-[Tle]I[Tle]ITQH[dL]S[βAla]K-NH2 / II: cyclo([2Nal]R[dR]R[dR]E[dF]); amide I:11-II:6 (inferred); ring closure inferred)
neutrophilic infiltration into the lungs ([1]; 1 h before LPS i.p. 10 mg/kg): prevented | protection from LPS-induced production of cytokines and protein leakage into BALF ([1]; 1 h before LPS i.p. 10 mg/kg): almost completely protected | decrease of plasma level of IL6 ([1]; LPS sepsis mice): ~4 fold | decrease of plasma level of TNFα ([1]; LPS sepsis mice): ~4 fold | phorbol ester- and ionomycin-induced expression of luciferase [2]: potently inhibited
